Patent US11000501B2, “Composition for preventing or treating neurological and mental disorders, containing syringaresinol” (SEOUL NATIONAL UNIVERSITY R&DB FOUNDATION, priority 2016, dated 2021)

Assay: Open field test
Assay type: in vivo, mouse
Settings: 10 mg/kg intraperitoneally, test 30 minutes after injection, 30-minute test
Method: All experiments were performed using male and female C57BL/6 mice of 4 to 6 weeks of age. An open field test was performed on male mice of 6 to 7 weeks. Animals were maintained with circulating 12/12-h day/night, while daytime starts at 07:00. Three or five animals were housed per one cage. Free available food and water were fed to the mice under specific pathogenic-microorganism free (SPF) conditions. The animal maintenance protocol and all experimental procedures were approved by the Institutional Animal Care and Use Committee (IACUC) of Seoul National University.
In an open field test, we video-recorded a movement of a 7 to 10-week-old mouse in a white plastic chamber (40×40×40 cm) in a darkened room for 30 minutes. Then, the moving distance of the mouse was measured using Ethovision XT (Noldus) software.
To determine the change of the activity of the mice by syringaresinol, we injected syringaresinol at a concentration of 10 mg/kg intraperitoneally into the mice. After 30 minutes, we measured the activity of the mice via an open field test. In this connection, control was injected with DMSO, a solvent used for dissolving syringaresinol. The open field test was conducted for 30 minutes. The activity of the mouse was checked at a 5-minute interval. Further, during the 30-minute test, the total movement distance of the mouse was measured.

SMILES: COc1cc(C2OCC3C(c4cc(OC)c(O)c(OC)c4)OCC23)cc(OC)c1O (stereo not shown) [SYR, syringaresinol]
- activity of the mouse as fraction of control (movement distance): ¼
